The record followed here is ChEMBL document CHEMBL4304794.

Test [1] addresses Programmed cell death 1 ligand 1 (Homo sapiens) (UniProt Q9NZQ7). Nature of the test: Inhibition of PDL1 in human […] cells assessed as recovery of mouse splenocyte proliferation at 100 nM by CFSE-based FACS analysis relative to control. The class given is cell-based.
In test [2] the target is Programmed cell death protein 1 (Homo sapiens) (UniProt Q15116). The test can be described thus: Binding affinity to biotinylated recombinant human C-terminal FC -tagged PD1 (25 to 167 residues) at 0.3 to 300 uM by SPR analysis.
Chain of Programmed cell death protein 1 (Homo sapiens) (Q15116 whole entry, the tested form may be a part): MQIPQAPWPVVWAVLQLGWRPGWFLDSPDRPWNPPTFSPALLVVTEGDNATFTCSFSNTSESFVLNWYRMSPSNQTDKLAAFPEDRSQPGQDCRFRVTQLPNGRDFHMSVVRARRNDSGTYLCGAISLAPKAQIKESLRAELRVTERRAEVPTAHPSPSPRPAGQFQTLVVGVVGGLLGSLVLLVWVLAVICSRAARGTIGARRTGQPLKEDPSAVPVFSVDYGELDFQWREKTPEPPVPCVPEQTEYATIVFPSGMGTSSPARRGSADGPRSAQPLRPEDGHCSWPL
For test [3], the target named is Programmed cell death 1 ligand 1 (Mus musculus) (UniProt Q9EP73). Nature of the test: Inhibition of recombinant mouse N-terminal PDL1 (19 to 238 residues) assessed as recovery of mouse splenocyte proliferation at 100 nM by CFSE-based FACS analysis relative to control.
Chain of Programmed cell death 1 ligand 1 (Mus musculus) (Q9EP73 whole entry, the tested form may be a part): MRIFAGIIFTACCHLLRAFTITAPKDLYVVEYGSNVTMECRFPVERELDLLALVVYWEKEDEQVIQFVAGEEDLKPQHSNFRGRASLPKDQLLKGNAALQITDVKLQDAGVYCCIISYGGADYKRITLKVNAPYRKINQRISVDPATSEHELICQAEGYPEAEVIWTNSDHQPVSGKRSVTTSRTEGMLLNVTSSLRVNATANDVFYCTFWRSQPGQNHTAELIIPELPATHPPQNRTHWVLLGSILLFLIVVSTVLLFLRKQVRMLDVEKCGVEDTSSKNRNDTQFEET

Calls of active or inactive are those of the source. No cut-off for these calls is given here.

Chain of Programmed cell death 1 ligand 1 (Homo sapiens) (Q9NZQ7 whole entry, the tested form may be a part): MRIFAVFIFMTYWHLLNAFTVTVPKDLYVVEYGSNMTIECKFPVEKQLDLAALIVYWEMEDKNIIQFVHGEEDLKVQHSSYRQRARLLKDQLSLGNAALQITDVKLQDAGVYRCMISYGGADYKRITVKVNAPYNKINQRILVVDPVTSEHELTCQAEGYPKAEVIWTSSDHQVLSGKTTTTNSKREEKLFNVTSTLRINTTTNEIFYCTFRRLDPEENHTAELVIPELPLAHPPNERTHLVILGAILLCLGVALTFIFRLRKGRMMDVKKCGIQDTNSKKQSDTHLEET

For the compound `C[C@@H](O)[C@H](NC(=O)N[C@@H](CC(N)=O)C(=O)NNC(=O)[C@@H](N)CO)C(=O)O`, the inhibition in test [1] came out at 68%. Also, the outcome in test [2] was inactive.
Regarding `NC(=O)C[C@H](N)c1nc([C@@H](N)CO)no1`, the inhibition in test [3] came to 93%. Further, the outcome in test [2] was inactive.
Taken in the same sequence, the figures for `C#CC[C@H](NC(=O)N[C@H](C(=O)O)[C@@H](C)O)c1nc(-c2cnccn2)no1` were 92% and “inactive”.
